Measured values reported in patent US10222381B2, “Water-soluble peptide fluorescence material” (NATIONAL CHIAO TUNG UNIVERSITY, priority 2015, dated 2019).
Residues, ends and D or L forms follow the SMILES beside them. *: point of attachment. X1 = O=C1c2cccc3c(N4CCCCC4)ccc(c23)C(=O)C1CC(=O)*

Experiments:
[1] = tested on: acidic cells in living cells; test: Fluorescence marking of acidic cells in living cells, compared with Lysotracker; assay type: cell-based; details: for fluorescence appearing at the acidic cells: living cells, FIGS. 1A/1B
Text: The water-soluble peptide fluorescence material is designed to illuminate in acid, neutral or weak base environment, and following embodiments give an example illuminating in acid environment. FIGS. 1A, 1B and 1C are comparative pictures between a water-soluble peptide fluorescence material of the present disclosure and a traditional fluorescence material at the same concentration. The water-soluble peptide fluorescence material has a structure of following formula including a peptide sequence Phe-Asp-Gly-Glu-Ala (SEQ ID NO: 5):
Continuing in FIG. 1B to compare with FIG. 1A, FIG. 1B uses the water-soluble peptide fluorescence material of the present disclosure, which is also used to mark acidic cells in living cells. […] Accordingly, the water-soluble peptide fluorescence material is suitable for a biological fluorescence probe, so as to detect and mark positions of the acidic cells.
At the same concentration, the water-soluble peptide fluorescence material has the greater fluorescence intensity than that of Lysotracker. On this base, a dose of the water-soluble peptide fluorescence material could be decreased to achieve the same fluorescence intensity with the Lysotracker, so as to decrease medical costs and damage to human bodies.

[2] = Fluorescence intensity and emission wavelength at different pH values; assay type: physicochemical
Text: In Experimental Examples 210, 220, 230, 240, 250, 260, 270 and 280, the above water-soluble peptide fluorescence material is respectively placed in environments having a pH value of 10, 9, 8, 7, 6, 5, 4 and 3 for testing. In Experimental Examples 210 to 230, the water-soluble peptide fluorescence material is respectively placed in environments having the pH value of 10, 9 and 8.
Continuing in FIG. 5, which illustrates a fluorescence intensity and an emission wavelength of the water-soluble peptide fluorescence material of formula (III-10) at different pH values. In Experimental Examples 510, 520, 530, 540, 550, 560, 570 and 580, the water-soluble peptide fluorescence material of formula (III-10) is respectively placed in environments having a pH value of 10, 9, 8, 7, 6, 5, 4 and 3 for testing. In Experimental Examples 510 to 560, the water-soluble peptide fluorescence material is placed in environments having the pH value of 10 to 5, and two emission peaks are shown in FIG. 5. […] Then, the pH value is further decrease to 4 (Experimental Example 570) and 3 (Experimental Example 580), and only the emission peak at about 400 nm is remained, so the observed fluorescence has a color of purple in Experimental Examples 570 and 580. Therefore, the water-soluble peptide fluorescence material of formula (III-10) is able to detect and mark locations of acidic cells by change of the color.
Continuing in FIG. 7, which illustrates a fluorescence intensity and an emission wavelength of the water-soluble peptide fluorescence material of formula (III-21) at different pH values. In Experimental Examples 710, 720, 730, 740, 750, 760, 770 and 780, the water-soluble peptide fluorescence material of formula (III-21) is respectively placed in environments having a pH value of 10, 9, 8, 7, 6, 5, 4 and 3 for testing. In Experimental Examples 710 to 750, the water-soluble peptide fluorescence material is placed in environments having the pH value of 10 to 6. […] However, the fluorescence intensity of Experimental Examples 780 is decreased when the pH value is decreased from 4 to 3.
Continuing in FIG. 8, which illustrates a fluorescence intensity and an emission wavelength of the water-soluble peptide fluorescence material of formula (III-22) at different pH values. In Experimental Examples 810, 820, 830, 840, 850, 860, 870 and 880, the water-soluble peptide fluorescence material of formula (III-22) is respectively placed in environments having a pH value of 10, 9, 8, 7, 6, 5, 4 and 3 for testing. In Experimental Examples 810 to 850, the water-soluble peptide fluorescence material is respectively placed in environments having the pH value of 10 to 6. […] In addition, the fluorescence intensity of Experimental Example 860 (pH=5) is 90 times of the fluorescence intensity of Experimental Example 810 […], which represents that the water-soluble peptide fluorescence material has obvious light-emitting interval and easily to identify and detect positions of the acidic cells.
FIG. 10 illustrates a fluorescence intensity and an emission wavelength of the water-soluble peptide fluorescence material of formula (III-23) at different pH values. In Experimental Examples 1010, 1020, 1030, 1040, 1050, 1060, 1070 and 1080, the water-soluble peptide fluorescence material of formula (III-23) is respectively placed in environments having a pH value of 10, 9, 8, 7, 6, 5, 4 and 3 for testing. In Experimental Examples 1010 to 1050, the water-soluble peptide fluorescence material is respectively placed in environments having the pH value of 10 to 6. […] The water-soluble peptide fluorescence material not only provides obvious marker, but also achieves the same effect of the fluorescence at a low concentration, and thereby reduces the costs.
FIG. 11 illustrates a fluorescence intensity and an emission wavelength of the water-soluble peptide fluorescence material of formula (III-27) at different pH values. […]

[3] = Survival rate of PC-3 cells in the fluorescence material; assay type: cell-based; details: human, two days, PC-3 cell
Text: (§1) The above experimental result is much better than a standard of IC50 (50% inhibitory concentration). IC50 represents a concentration of a drug that is required for 50% survival rate of the cells, which means that a certain concentration of a drug is used to detect a cell mortality rate of 50%, and the certain concentration is also referred as 50% inhibitory concentration. Described in different ways, when a ratio of death cells to original cells is 50%, the corresponding concentration is 50% inhibitory concentration. The water-soluble peptide fluorescence material of the present disclosure has low toxicity and excellent compatibility to PC-3 cells, so as to avoid mass mortality of the cells. In addition, HeLa, MCF-7, CTXTAN2, PC12, WSI, 3T3L1 cells are also tested. The water-soluble peptide fluorescence material has excellent compatibility with these cells since the survival rate of these cell are all over 50%.

[4] = Survival rate of HeLa cells; assay type: cell-based; details: human
Text: as §1

[5] = Survival rate of MCF-7 cells; assay type: cell-based; details: human
Text: as §1

[6] = Survival rate of CTXTAN2 cells; assay type: cell-based; details: rat
Text: as §1

[7] = Survival rate of PC12 cells; assay type: cell-based; details: rat
Text: as §1

[8] = Survival rate of WSI cells; assay type: cell-based; details: human
Text: as §1

[9] = Survival rate of 3T3L1 cells; assay type: cell-based; details: mouse
Text: as §1

[10] = Fluorescence in co-solvents of glycerol and methanol (aggregation-induced emission); assay type: physicochemical
Text: Continuing in FIG. 6, which illustrates a fluorescence intensity and an emission wavelength of the water-soluble peptide fluorescence material of formula (III-14) in co-solvents having different proportions of glycerol and methanol. In Experimental Example 601, 602, 603, 604, 605, 606, 607, 608, 609 and 610, methanol respectively has 0, 10, 20, 30, 40, 50, 60, 70, 80 and 90% of a total volume of the co-solvent. […] Given the above, the fluorescence intensity of the water-soluble peptide fluorescence material of formula (III-14) is increased corresponding to the increase of the volume ratio of methanol, so the water-soluble peptide fluorescence material of formula (III-14) also has a phenomenon of aggregation-induced emission (AIE) in methanol. In addition, the water-soluble peptide fluorescence material of formula (III-14) has the emission wavelength of about 550 nm, so the observed fluorescence has a color of green.

In the case of `C[C@H](NC(=O)[C@H](CCC(=O)O)NC(=O)CNC(=O)[C@H](CC(=O)O)NC(=O)[C@H](Cc1ccccc1)NC(=O)CC1C(=O)c2cccc3c(N4CCCCC4)ccc(c23)C1=O)C(=O)O` (stereo partly drawn) (X1-FDGEA-OH), the “fluorescence appearing at the acidic cells” value [1] is reported as “green fluorescence”, the “cellular position of fluorescence compared with Lysotracker” value ([1]; overlapped picture FIG. 1C) is reported as “substantially the same as Lysotracker” and the “fluorescence intensity compared with Lysotracker” value ([1]; same concentration, acidic cells in living cells) is reported as “greater than that of the red fluorescence of Lysotracker”. For the same compound, the “ratio of fluorescence intensity pH 3 to pH 7” value ([2]; Experimental Examples 240 and 280) was 25.5 times, the fluorescence intensity ([2]; pH 3) was “about 900 fluorescent units” and the fluorescence intensity ([2]; pH 4) was “about 500 fluorescent units”. The color of fluorescence ([2]; pH 5) was “green”, the emission peak ([2]; pH 5) was “about 550 nm” and the fluorescence intensity ([2]; pH 5) was “about 350 fluorescent units”. For the same compound, the fluorescence intensity ([2]; pH 6, compared to pH 10 to 7) was “no significant change”, the fluorescence intensity ([2]; pH 7, neutral environment) was “slightly increased” and the fluorescence intensity ([2]; pH 10, 9 and 8) was “low fluorescence intensities”. It also gave a viability at 48 h, 500 µM [3] of 80%, a viability [4] of over 50% and a viability [5] of over 50%. For the same compound, the viability [6] was over 50%, the viability [7] was over 50% and the viability [8] was over 50%. It also gave a viability [9] of over 50%.

For `CN(C)CCNC(=O)CCc1ccc2n1[B-](F)(F)[N+]1=C(c3ccc[nH]3)C=CC1=C2` [Lysotracker, reference compound], the “fluorescence appearing at the acidic cells” value [1] was “red fluorescence”.

In the case of `O=C(CN1C(=O)c2cccc3c(N4CCCCC4)ccc(c23)C1=O)NC(Cc1ccccc1)C(=O)NC(Cc1ccccc1)C(=O)O` (stereo not drawn) [III-14], the “fluorescence intensity with increase of the volume ratio of methanol” value ([10]; aggregation-induced emission) is reported as “increased”, the “color of observed fluorescence” value ([10]; glycerol/methanol co-solvent) is reported as “green” and the emission wavelength ([10]; glycerol/methanol co-solvent) is reported as “about 550 nm”. For the same compound, the fluorescence intensity ([10]; methanol 90% (Experimental Example 610), methanol 0 to 90% tested) was “largest fluorescence intensity”.
